Measured values taken from patent US10793538B2, “Cycloalkenyl hydroxamic acid derivatives and their use as histone deacetylase inhibitors” (The Broad Institute, Inc., priority 2012, dated 2020).
pIC50: −log10 of the molar value.

Assays:
Assay in all cases: HDAC isoform inhibition, microfluidic lab-on-a-chip (Caliper) assay
HDAC5 = biological target: T1, HDAC5 (Homo sapiens, UniProt Q9UQL6); type: biochemical; conditions: HDAC isoform 5; 2 μM FAM-labeled acetylated peptide substrate, 60 min, room temperature
T1 construct: purchased BPS Bioscience
T1 sequence (Q9UQL6 whole entry, canonical isoform): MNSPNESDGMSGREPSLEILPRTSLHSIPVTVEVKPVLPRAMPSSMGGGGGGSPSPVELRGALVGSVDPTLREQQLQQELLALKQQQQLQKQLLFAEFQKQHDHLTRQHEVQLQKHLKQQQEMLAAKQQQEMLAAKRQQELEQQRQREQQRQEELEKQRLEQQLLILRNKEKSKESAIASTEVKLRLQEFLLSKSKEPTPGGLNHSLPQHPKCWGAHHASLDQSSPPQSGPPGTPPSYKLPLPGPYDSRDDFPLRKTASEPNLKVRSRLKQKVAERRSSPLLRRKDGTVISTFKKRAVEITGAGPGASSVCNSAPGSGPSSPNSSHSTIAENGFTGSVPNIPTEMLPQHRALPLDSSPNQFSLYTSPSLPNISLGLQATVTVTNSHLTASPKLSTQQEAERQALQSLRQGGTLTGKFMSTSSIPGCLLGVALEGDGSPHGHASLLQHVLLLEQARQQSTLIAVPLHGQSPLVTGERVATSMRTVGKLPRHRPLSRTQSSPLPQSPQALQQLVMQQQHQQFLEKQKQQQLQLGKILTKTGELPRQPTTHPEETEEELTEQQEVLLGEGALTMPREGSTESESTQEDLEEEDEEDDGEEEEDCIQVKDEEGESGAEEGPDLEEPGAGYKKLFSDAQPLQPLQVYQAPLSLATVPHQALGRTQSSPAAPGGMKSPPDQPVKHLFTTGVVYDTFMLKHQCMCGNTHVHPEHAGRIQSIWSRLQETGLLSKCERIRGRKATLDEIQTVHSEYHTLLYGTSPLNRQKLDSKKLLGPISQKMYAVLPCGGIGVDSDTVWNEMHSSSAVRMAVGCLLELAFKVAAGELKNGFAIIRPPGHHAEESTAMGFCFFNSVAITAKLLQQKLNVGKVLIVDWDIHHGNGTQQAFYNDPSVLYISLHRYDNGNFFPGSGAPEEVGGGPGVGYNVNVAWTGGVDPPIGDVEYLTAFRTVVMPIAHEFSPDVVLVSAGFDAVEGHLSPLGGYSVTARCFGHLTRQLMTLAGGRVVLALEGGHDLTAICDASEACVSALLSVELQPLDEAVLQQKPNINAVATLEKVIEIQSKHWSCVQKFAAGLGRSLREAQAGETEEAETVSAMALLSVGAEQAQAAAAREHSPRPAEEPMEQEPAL

HDAC7 = biological target: T2, HDAC7 (Homo sapiens, UniProt Q8WUI4); type: biochemical; conditions: HDAC isoform 7; 2 μM FAM-labeled acetylated peptide substrate, 60 min, room temperature
T2 construct: purchased BPS Bioscience
T2 sequence (Q8WUI4 1-952): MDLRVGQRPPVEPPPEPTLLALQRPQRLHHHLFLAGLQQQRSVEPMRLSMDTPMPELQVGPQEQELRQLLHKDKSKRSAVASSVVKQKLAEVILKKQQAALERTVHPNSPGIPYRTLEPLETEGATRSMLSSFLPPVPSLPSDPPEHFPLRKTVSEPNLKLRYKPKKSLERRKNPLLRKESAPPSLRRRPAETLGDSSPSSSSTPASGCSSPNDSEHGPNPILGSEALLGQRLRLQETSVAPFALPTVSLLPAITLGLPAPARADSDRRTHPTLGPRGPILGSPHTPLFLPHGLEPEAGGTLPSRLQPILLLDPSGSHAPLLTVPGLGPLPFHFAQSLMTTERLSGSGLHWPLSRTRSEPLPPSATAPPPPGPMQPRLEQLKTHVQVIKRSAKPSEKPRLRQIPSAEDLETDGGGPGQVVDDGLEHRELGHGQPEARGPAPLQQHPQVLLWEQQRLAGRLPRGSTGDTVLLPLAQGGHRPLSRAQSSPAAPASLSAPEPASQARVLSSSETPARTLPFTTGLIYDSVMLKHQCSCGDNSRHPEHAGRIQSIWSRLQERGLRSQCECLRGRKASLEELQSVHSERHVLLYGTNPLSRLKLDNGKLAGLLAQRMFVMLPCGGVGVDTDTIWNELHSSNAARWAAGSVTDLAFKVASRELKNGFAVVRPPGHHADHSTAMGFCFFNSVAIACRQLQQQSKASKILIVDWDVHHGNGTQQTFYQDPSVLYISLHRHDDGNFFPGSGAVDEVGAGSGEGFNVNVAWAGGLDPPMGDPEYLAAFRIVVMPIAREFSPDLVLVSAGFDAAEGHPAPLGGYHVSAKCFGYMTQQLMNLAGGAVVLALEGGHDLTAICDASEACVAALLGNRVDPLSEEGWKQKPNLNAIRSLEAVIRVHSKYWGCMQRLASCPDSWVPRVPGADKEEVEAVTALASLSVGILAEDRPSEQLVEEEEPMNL

HDAC6 = biological target: T3, HDAC6 (Homo sapiens, UniProt Q9UBN7); type: biochemical; conditions: HDAC isoform 6; 2 μM FAM-labeled acetylated peptide substrate, 60 min, room temperature
T3 construct: purchased BPS Bioscience
T3 sequence (Q9UBN7 1-1215): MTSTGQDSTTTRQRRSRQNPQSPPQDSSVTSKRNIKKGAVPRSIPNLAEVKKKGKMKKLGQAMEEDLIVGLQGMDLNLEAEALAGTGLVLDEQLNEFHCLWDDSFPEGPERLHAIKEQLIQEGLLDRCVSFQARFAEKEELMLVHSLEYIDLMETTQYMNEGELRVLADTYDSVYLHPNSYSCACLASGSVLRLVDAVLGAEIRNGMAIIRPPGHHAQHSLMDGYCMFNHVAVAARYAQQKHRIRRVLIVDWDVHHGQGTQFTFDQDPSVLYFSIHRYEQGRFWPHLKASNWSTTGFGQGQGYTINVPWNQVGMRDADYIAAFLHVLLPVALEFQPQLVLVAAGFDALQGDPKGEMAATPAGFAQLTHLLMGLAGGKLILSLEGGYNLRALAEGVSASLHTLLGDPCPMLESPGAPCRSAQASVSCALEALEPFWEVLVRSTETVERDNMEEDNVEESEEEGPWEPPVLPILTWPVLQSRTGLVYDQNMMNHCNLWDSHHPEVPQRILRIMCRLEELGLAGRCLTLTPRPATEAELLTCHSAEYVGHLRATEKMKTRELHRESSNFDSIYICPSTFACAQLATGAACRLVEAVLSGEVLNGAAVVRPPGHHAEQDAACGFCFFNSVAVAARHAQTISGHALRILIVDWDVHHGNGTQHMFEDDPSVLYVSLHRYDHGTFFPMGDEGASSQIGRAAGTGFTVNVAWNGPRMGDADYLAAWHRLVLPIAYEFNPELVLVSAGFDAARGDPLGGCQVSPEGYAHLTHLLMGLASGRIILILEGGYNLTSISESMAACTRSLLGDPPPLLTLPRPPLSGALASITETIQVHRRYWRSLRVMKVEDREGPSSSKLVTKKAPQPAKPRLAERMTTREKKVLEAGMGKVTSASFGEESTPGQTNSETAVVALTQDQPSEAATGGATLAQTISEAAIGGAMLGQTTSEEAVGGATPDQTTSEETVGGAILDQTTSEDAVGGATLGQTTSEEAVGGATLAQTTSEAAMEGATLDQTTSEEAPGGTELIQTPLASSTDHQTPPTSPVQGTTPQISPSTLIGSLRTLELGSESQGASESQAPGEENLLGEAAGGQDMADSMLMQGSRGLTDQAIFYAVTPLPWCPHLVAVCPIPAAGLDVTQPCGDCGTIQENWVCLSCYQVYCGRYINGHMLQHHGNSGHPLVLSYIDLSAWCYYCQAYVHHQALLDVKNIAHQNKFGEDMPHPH

HDAC1 = biological target: T4, HDAC1 (Homo sapiens, UniProt Q13547); type: biochemical; conditions: HDAC isoform 1; 2 μM FAM-labeled acetylated peptide substrate, 60 min, room temperature
T4 construct: purchased BPS Bioscience
T4 sequence (Q13547 whole entry, canonical isoform): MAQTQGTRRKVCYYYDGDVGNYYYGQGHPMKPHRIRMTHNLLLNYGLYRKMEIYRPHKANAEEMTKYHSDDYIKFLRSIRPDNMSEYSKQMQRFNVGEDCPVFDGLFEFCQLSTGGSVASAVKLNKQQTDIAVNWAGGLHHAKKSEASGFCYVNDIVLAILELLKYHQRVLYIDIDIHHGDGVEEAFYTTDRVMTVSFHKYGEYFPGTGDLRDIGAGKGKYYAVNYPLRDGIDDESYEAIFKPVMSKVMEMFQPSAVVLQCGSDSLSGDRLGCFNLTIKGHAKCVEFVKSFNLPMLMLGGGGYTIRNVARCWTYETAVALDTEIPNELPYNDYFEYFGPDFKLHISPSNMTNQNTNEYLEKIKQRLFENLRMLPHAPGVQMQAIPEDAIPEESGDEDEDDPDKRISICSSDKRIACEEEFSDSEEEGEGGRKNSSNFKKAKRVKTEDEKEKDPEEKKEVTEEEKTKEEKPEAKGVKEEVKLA

HDAC3 = biological target: T5, HDAC3 (Homo sapiens, UniProt O15379); type: biochemical; conditions: HDAC isoform 3; 2 μM FAM-labeled acetylated peptide substrate, 60 min, room temperature
T5 construct: purchased BPS Bioscience
T5 sequence (O15379 whole entry, canonical isoform): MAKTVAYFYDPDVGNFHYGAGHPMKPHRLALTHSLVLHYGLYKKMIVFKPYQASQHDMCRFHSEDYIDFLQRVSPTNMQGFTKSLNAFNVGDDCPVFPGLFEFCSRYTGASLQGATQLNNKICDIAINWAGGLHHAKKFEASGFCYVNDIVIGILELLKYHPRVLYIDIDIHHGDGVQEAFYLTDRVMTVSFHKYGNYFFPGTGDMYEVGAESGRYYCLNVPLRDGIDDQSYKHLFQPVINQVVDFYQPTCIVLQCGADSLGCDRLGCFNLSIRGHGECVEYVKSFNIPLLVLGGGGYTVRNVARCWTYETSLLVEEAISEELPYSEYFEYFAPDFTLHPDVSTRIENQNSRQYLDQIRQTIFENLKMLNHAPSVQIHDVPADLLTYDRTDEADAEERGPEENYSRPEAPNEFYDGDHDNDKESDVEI
T5 sequence (Q9Y618 395-489 partner limits assumed): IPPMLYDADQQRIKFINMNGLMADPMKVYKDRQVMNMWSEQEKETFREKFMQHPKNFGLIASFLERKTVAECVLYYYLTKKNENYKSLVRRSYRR

HDAC9 = biological target: T6, HDAC9 (Homo sapiens, UniProt Q9UKV0); type: biochemical; conditions: HDAC isoform 9; 2 μM FAM-labeled acetylated peptide substrate, 60 min, room temperature
T6 construct: purchased BPS Bioscience
T6 sequence (Q9UKV0 whole entry, canonical isoform): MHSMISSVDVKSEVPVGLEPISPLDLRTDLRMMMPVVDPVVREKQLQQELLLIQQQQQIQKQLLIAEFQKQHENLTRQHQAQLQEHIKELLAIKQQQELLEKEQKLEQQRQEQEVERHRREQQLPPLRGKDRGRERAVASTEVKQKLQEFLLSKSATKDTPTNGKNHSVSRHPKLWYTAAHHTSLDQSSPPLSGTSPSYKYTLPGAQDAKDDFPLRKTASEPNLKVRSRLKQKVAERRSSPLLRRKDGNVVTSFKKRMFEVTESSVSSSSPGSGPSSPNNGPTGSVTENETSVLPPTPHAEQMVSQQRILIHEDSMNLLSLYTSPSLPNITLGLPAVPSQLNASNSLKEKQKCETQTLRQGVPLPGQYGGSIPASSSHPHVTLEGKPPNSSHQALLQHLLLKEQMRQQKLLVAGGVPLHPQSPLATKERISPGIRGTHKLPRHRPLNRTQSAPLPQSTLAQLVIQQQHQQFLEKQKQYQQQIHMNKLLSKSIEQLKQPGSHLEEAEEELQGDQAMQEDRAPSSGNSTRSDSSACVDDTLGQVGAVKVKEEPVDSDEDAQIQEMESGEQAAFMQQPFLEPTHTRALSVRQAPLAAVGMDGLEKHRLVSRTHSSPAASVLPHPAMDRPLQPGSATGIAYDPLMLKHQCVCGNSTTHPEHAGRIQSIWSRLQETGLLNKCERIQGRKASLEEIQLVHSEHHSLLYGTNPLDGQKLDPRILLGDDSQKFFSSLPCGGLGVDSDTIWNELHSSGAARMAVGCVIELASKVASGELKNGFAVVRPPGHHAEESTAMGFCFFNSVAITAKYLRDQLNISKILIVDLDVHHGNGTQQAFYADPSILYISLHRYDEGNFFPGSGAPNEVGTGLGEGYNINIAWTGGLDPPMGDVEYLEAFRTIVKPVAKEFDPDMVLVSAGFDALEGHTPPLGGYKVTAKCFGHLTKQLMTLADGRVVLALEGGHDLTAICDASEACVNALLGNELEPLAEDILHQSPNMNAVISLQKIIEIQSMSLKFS

HDAC8 = biological target: T7, HDAC8 (Homo sapiens, UniProt Q9BY41); type: biochemical; conditions: HDAC isoform 8; 2 μM FAM-labeled acetylated peptide substrate, 60 min, room temperature
T7 construct: purchased BPS Bioscience
T7 sequence (Q9BY41 1-377): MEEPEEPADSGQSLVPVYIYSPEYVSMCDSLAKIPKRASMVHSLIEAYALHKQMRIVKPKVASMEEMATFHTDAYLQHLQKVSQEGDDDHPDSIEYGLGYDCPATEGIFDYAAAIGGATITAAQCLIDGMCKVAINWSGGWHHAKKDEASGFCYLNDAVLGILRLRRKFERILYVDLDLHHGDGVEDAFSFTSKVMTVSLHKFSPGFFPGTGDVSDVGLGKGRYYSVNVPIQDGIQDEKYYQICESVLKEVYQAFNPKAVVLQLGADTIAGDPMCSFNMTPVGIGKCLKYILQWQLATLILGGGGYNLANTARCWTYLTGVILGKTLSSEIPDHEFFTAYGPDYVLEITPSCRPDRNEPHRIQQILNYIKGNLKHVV

HDAC4 = HDAC4 (Homo sapiens, UniProt P56524)
Chain of HDAC4 (P56524 whole entry, canonical isoform): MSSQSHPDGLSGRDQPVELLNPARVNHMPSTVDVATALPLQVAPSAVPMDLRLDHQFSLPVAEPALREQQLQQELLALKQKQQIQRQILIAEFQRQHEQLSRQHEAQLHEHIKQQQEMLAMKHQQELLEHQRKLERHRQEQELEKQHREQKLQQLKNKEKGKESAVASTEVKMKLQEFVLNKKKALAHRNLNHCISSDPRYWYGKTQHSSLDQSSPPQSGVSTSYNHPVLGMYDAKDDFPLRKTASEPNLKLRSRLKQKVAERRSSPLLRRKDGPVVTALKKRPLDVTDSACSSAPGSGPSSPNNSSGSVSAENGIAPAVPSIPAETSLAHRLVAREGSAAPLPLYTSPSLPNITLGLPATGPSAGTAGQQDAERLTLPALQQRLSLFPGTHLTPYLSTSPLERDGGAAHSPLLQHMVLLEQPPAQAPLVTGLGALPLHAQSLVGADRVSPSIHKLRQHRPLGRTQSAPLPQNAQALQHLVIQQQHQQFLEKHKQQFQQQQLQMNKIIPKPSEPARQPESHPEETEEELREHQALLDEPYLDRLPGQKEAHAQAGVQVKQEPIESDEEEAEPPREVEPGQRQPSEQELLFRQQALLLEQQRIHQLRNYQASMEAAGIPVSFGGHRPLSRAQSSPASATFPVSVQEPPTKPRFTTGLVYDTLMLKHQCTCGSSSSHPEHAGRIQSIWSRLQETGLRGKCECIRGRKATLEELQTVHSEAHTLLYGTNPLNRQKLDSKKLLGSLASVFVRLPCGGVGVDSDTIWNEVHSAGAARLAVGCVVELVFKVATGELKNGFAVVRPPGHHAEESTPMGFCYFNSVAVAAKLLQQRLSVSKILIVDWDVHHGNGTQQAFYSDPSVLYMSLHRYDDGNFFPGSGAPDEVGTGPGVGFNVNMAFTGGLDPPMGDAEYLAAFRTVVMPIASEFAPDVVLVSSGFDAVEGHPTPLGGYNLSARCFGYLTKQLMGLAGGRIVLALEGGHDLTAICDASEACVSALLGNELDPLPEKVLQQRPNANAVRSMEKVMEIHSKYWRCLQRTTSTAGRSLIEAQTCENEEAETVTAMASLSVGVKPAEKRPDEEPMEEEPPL
Protocol: The following microfluidic lab-on-a-chip assay as described herein was used to assay the compounds of the invention.
All HDACs were purchased from BPS Bioscience. All other reagents were purchased from Sigma. Caliper EZ reader II system was used to collect all the data.
In short, purified HDACs were incubated with 2 μM carboxyfluorescein (FAM)-labeled acetylated peptide substrate and test compound for 60 min at room temperature, in HDAC assay buffer that contained 50 mM HEPES (pH 7.4), 100 mM KCl, 0.01% BSA and 0.001% Tween-20. […] Substrate and product were separated electrophoretically and fluorescence intensity in the substrate and product peaks was determined and analyzed by Labchip EZ Reader. The reactions were performed in duplicate for each sample. IC50 values were automatically calculated by Origion8 using 4 Parameter Logistic Model. The percent inhibition was plotted against the compound concentration, and the IC50 value was determined from the logistic dose-response curve fitting by Origin 8.0 software.

HDAC2 = biological target: T8, HDAC2 (Homo sapiens, UniProt Q92769); type: biochemical; conditions: HDAC isoform 2; 2 μM FAM-labeled acetylated peptide substrate, 60 min, room temperature
T8 construct: purchased BPS Bioscience
T8 sequence (Q92769 whole entry, canonical isoform): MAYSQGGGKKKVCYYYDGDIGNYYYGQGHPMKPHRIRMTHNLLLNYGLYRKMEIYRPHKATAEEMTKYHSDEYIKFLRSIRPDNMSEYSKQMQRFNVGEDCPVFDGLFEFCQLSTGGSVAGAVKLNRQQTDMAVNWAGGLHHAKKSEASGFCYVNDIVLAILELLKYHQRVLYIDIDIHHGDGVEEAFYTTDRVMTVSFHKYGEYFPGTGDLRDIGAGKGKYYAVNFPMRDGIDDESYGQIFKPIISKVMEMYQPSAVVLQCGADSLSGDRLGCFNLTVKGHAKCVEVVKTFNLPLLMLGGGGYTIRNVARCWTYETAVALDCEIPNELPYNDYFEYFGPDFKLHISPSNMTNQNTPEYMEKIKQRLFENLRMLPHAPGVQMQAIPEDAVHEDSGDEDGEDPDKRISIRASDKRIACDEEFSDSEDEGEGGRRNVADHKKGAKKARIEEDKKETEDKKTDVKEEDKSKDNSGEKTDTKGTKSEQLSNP

SMILES	IC50 (HDAC5)	IC50 (HDAC7)	IC50 (HDAC6)	IC50 (HDAC1)	IC50 (HDAC3)	IC50 (HDAC9)	IC50 (HDAC8)	pIC50 (HDAC4)	IC50 (HDAC2)
COc1ccc(CNC2C=C(C(=O)NO)CCC2)cc1 (stereo not shown) [Compound 7A, N-Hydroxy-3-((4-Methoxybenzyl)Amino)Cyclohex-1-Enecarboxamide]	> 33 µM	> 33 µM	2.68 µM	> 33 µM	> 33 µM	> 33 µM	2.16 µM	< 4.48	> 33 µM
O=C(NO)C1=CC(Sc2ccccc2)CCC1 (stereo not shown) [Compound 10A, N-Hydroxy-3-(Phenylthio)Cyclohex-1-Enecarboxamide]	10.9 µM	6.91 µM	0.106 µM	2.1 µM	3.22 µM	16 µM	0.055 µM	5.10	1.7 µM
COc1ccc(C(=O)N2CCC=C(C(=O)NO)C2)cc1 [Compound 12A]	> 33 µM	> 33 µM	6.2 µM	> 33 µM	> 33 µM	> 33 µM	23.2 µM	< 4.48	> 33 µM
O=C(NO)C1=CCCCC1 [Compound 19A, N-Hydroxycyclohex-1-Enecarboxamide]	15.2 µM	2.32 µM	0.011 µM	0.423 µM	0.493 µM	11.7 µM	0.523 µM	4.99	1.4 µM
CN1CCC=C(C(=O)NO)C1 [Compound 30A, N-Hydroxy-1-Methyl-1,2,5,6-Tetrahydropyridine-3-Carboxamide]	> 33 µM	> 33 µM	> 33 µM	> 33 µM	> 33 µM	> 33 µM	2.63 µM	< 4.48	> 33 µM

Other lines, results leading:

IC50 (HDAC5)	IC50 (HDAC7)	IC50 (HDAC6)	IC50 (HDAC1)	IC50 (HDAC3)	IC50 (HDAC9)	IC50 (HDAC8)	pIC50 (HDAC4)	IC50 (HDAC2)	SMILES
–	26.8 µM	0.016 µM	1.08 µM	1.4 µM	> 33 µM	1.38 µM	< 4.48	1.9 µM	O=C(NO)C1=CCOCC1 [Compound 20A, N-Hydroxy-3,6-Dihydro-2H-Pyran-4-Carboxamide]
21.1 µM	–	0.024 µM	0.727 µM	0.734 µM	> 33 µM	1.85 µM	4.53	3.44 µM	O=C(NO)C1=CCCC1 [Compound 21A, N-Hydroxycyclopent-1-Enecarboxamide]
> 33 µM	> 33 µM	> 33 µM	> 33 µM	> 33 µM	> 33 µM	9.14 µM	< 4.48	> 33 µM	O=C(NO)C1=C[C@@H](O)[C@@H](O)[C@H](O)C1 [Compound 22A, (3R,4S,5R)-N,3,4,5-Tetrahydroxycyclohex-1-Enecarboxamide]
23.6 µM	17.9 µM	0.049 µM	0.275 µM	0.713 µM	11.2 µM	1.13 µM	4.80	0.584 µM	CC1=C(C(=O)NO)Cc2ccccc21 [Compound 29A, N-Hydroxy-3-Methyl-1H-Indene-2-Carboxamide]
7.41 µM	11.6 µM	0.014 µM	0.084 µM	0.099 µM	13 µM	0.494 µM	4.83	0.375 µM	Cc1ccc(S(=O)(=O)N2CC=C(C(=O)NO)CC2)cc1 [Compound 31A, N-Hydroxy-1-Tosyl-1,2,3,6-Tetrahydropyridine-4-Carboxamide]
14 µM	2.46 µM	0.014 µM	1.86 µM	2.32 µM	4.08 µM	0.626 µM	5.33	2.6 µM	O=C(NO)C1=Cc2ccccc2CC1 [Compound 32A, N-Hydroxy-3,4-Dihydronaphthalene-2-Carboxamide]
